Measured values reported in the kinase profiling compilation of Christmann-Franck et al. (2016).

Assays:
Assay in all cases: KINOMEscan competition binding
Conditions in all cases: compound 10.0 µM
[1] = tested on: ABL1 (human), P00519 [Y253F]
[2] = biological target: ACVRL1 (human) (UniProt P37023)
[3] = biological target: AKT3 (human) (UniProt Q9Y243)
[4] = biological target: AURKA (human) (UniProt O14965)
[5] = biological target: CDK16 (human) (UniProt Q00536)
[6] = biological target: CHEK1 (human) (UniProt O14757)
[7] = biological target: CLK3 (human) (UniProt P49761)
CLK3 (human), sequence (P49761 whole entry, looked up): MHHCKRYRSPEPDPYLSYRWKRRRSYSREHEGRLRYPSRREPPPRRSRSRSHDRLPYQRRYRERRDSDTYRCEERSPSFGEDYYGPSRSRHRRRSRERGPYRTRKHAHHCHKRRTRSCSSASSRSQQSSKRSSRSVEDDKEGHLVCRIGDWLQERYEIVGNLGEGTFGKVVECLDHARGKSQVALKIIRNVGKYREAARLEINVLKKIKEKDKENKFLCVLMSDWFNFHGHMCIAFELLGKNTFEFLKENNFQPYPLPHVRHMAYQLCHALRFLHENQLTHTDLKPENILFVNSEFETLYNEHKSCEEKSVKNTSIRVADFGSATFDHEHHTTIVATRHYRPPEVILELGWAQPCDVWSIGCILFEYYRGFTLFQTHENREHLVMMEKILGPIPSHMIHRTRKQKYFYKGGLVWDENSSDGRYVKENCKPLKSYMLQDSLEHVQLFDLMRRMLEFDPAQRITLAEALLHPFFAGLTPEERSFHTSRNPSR

[8] = biological target: CLK4 (human) (UniProt Q9HAZ1)
[9] = biological target: CSF1R (human) (UniProt P07333)
[10] = biological target: CSNK1D (human) (UniProt P48730)
CSNK1D (human), sequence (P48730 whole entry, looked up): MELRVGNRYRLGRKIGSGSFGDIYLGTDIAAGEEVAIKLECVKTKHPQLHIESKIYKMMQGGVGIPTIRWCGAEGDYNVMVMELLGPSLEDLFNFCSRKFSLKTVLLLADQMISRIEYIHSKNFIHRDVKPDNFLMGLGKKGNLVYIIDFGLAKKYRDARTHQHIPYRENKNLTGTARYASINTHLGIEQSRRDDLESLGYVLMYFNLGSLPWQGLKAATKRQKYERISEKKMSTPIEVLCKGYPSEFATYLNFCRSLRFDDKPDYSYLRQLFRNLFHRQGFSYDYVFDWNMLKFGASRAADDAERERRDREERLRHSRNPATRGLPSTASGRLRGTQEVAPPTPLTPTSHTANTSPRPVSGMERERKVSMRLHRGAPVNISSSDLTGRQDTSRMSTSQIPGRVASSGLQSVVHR

[11] = biological target: CSNK1E (human) (UniProt P49674)
[12] = biological target: CSNK1G1 (human) (UniProt Q9HCP0)
[13] = biological target: CSNK1G2 (human) (UniProt P78368)
[14] = biological target: DCLK3 (human) (UniProt Q9C098)
DCLK3 (human), sequence (Q9C098 whole entry, looked up): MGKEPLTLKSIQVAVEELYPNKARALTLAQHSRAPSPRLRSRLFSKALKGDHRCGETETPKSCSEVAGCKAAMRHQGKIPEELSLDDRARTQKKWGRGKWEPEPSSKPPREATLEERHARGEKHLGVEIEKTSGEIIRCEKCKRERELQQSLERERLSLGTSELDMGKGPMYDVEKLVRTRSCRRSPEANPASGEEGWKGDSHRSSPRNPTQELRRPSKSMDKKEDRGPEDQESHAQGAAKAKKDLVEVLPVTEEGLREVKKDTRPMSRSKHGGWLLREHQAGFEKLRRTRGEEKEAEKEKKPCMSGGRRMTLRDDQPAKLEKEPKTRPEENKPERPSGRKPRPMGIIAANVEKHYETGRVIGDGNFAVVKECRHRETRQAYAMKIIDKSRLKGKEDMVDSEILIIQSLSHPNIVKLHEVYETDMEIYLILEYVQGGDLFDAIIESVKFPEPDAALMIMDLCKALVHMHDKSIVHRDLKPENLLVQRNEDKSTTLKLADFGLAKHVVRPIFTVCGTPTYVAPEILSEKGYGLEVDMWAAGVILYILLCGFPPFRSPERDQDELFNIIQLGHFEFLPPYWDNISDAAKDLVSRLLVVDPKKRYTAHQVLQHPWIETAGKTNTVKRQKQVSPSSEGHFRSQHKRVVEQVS

[15] = tested on: EGFR (human), P00533 [G719S]
[16] = biological target: EPHA2 (human) (UniProt P29317)
[17] = biological target: FGFR1 (human) (UniProt P11362)
[18] = biological target: FGR (human) (UniProt P09769)
[19] = biological target: ITK (human) (UniProt Q08881)
[20] = biological target: KDR (human) (UniProt P35968)
[21] = biological target: MAP2K6 (human) (UniProt P52564)
[22] = biological target: MAP4K1 (human) (UniProt Q92918)
[23] = biological target: MAPK6 (human) (UniProt Q16659)
[24] = biological target: MAPK9 (human) (UniProt P45984)
[25] = biological target: MARK4 (human) (UniProt Q96L34)
[26] = biological target: NEK2 (human) (UniProt P51955)
NEK2 (human), sequence (P51955 whole entry, looked up): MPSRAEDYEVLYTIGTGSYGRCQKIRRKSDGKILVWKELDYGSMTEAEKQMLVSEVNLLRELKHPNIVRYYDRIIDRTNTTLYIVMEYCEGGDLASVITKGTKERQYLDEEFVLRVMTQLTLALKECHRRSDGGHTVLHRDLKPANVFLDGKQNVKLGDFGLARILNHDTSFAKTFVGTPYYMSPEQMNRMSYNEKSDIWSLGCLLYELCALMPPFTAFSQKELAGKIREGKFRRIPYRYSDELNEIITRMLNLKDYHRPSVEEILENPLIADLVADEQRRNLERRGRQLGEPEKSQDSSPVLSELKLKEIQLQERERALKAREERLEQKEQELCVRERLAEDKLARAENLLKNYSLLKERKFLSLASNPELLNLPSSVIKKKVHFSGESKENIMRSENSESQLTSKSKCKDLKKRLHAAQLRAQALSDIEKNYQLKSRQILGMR

[27] = biological target: NTRK3 (human) (UniProt Q16288)
[28] = biological target: NUAK2 (human) (UniProt Q9H093)
[29] = biological target: PAK4 (human) (UniProt O96013)
[30] = biological target: PAK7 (human) (UniProt Q9P286)
PAK7 (human), sequence (Q9P286 whole entry, looked up): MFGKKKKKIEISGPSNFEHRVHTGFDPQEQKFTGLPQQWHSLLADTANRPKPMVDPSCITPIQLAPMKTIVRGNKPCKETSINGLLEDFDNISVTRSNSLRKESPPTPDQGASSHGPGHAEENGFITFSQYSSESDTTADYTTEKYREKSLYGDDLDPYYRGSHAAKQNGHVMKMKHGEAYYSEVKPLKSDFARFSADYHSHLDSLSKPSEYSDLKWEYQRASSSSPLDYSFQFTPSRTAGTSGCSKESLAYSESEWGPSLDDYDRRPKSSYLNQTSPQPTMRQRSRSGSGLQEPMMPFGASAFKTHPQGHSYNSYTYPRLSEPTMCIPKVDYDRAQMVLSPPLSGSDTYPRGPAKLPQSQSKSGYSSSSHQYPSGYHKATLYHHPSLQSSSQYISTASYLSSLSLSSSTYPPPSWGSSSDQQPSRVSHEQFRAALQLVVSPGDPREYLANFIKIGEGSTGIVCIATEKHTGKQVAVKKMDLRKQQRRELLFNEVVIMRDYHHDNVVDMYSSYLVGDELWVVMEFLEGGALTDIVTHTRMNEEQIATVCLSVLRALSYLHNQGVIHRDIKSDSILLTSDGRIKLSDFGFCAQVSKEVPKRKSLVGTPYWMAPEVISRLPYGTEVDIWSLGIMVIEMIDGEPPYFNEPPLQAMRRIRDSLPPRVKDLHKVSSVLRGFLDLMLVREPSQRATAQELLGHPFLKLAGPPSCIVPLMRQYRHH

[31] = biological target: PHKG2 (human) (UniProt P15735)
[32] = biological target: PIM2 (human) (UniProt Q9P1W9)
[33] = biological target: PIM3 (human) (UniProt Q86V86)
[34] = biological target: PLK4 (human) (UniProt O00444)
[35] = biological target: PRKCH (human) (UniProt P24723)
[36] = biological target: PRKG1 (human) (UniProt Q13976)
[37] = biological target: PTK6 (human) (UniProt Q13882)
[38] = tested on: RET (human), P07949 [M918T]
RET (human), P07949 [M918T], sequence (P07949 whole entry M918T, looked up): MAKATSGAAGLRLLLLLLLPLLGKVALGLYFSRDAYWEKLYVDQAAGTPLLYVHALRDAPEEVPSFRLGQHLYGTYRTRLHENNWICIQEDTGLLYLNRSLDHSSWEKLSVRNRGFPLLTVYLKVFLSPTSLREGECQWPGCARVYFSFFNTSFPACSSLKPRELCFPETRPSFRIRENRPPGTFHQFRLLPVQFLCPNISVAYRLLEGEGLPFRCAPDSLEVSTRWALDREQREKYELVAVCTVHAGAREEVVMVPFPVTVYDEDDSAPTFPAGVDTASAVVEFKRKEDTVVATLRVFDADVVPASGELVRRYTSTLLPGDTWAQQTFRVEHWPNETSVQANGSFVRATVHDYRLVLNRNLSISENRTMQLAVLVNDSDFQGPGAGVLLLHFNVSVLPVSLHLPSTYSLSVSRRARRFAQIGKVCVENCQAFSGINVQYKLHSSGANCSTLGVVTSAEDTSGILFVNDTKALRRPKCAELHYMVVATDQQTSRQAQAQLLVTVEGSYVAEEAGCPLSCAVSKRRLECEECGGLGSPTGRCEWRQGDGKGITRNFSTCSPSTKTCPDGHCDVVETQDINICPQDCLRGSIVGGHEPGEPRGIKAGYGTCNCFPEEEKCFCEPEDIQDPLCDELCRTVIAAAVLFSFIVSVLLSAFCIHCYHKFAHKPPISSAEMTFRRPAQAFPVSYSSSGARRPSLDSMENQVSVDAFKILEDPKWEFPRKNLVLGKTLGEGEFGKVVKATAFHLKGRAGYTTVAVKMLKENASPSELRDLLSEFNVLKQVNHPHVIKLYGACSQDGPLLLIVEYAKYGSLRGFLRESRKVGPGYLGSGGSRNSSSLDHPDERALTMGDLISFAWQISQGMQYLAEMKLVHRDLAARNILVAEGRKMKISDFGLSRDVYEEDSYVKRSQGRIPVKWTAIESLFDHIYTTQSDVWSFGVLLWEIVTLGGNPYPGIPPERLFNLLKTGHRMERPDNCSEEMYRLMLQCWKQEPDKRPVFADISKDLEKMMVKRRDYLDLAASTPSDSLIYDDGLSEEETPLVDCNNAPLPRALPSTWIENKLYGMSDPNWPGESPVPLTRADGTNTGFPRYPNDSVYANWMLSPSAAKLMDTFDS

[39] = biological target: RPS6KA1 KD1 (human) (UniProt Q15418)
[40] = biological target: SIK1 (human) (UniProt P57059)
[41] = biological target: STK10 (human) (UniProt O94804)
[42] = biological target: TYK2 JH2 pseudokinase (human) (UniProt P29597)
[43] = biological target: ULK1 (human) (UniProt O75385)

AKT3 (human), sequence (Q9Y243 whole entry, looked up): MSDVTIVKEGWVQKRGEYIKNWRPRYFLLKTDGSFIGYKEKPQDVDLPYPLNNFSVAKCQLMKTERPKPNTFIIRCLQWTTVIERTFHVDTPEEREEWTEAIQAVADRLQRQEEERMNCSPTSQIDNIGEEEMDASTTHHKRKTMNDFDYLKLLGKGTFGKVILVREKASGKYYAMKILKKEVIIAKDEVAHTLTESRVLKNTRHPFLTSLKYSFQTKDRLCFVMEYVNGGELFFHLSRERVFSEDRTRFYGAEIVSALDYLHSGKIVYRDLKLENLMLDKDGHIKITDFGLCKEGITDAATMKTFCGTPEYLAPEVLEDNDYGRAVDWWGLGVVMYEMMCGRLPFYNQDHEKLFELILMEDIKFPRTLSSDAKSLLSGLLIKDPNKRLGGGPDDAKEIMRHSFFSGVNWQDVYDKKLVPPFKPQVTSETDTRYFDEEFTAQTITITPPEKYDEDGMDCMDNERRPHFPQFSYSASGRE
CDK16 (human), sequence (Q00536 whole entry, looked up): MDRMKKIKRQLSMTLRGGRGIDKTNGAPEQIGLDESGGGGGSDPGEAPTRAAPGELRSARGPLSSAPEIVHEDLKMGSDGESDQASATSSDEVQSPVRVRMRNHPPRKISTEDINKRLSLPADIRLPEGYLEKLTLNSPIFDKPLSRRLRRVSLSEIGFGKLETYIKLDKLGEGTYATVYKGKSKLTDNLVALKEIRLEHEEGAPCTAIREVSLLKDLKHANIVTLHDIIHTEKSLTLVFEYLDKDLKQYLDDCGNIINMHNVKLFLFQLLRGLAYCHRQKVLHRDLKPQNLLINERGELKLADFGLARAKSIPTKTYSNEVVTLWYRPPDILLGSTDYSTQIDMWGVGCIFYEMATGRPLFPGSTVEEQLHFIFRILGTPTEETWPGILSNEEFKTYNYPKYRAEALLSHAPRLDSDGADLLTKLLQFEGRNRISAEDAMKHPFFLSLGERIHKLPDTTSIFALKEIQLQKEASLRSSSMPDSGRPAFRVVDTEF

Q: How did the kinase still bound, per cent of control [1] turn out when `CCN1CCN(Cc2ccc(NC(=O)c3ccc(C)c(/C=C/c4cnc(Nc5cc(N6CCNCC6)nc(C)n5)cn4)c3)cc2C(F)(F)F)CC1` was run?
A: 0.1%

Q: What about the kinase still bound, per cent of control [2] of the same compound?
A: 79%

Q: And the kinase still bound, per cent of control [3]?
A: 81%

Q: What about the kinase still bound, per cent of control [4] of the same compound?
A: 78%

Q: And the kinase still bound, per cent of control [5]?
A: 60%

Q: And the kinase still bound, per cent of control [6]?
A: 82%

Q: And the kinase still bound, per cent of control [7]?
A: 100%

Q: And the kinase still bound, per cent of control [8]?
A: 31%

Q: What about the kinase still bound, per cent of control [9] of the same compound?
A: 1.1%

Q: What about the kinase still bound, per cent of control [10] of the same compound?
A: 95%

Q: And the kinase still bound, per cent of control [11]?
A: 100%

Q: What about the kinase still bound, per cent of control [12] of the same compound?
A: 100%

Q: And the kinase still bound, per cent of control [13]?
A: 96%

Q: And the kinase still bound, per cent of control [14]?
A: 87%

Q: And the kinase still bound, per cent of control [15]?
A: 5.4%

Q: What about the kinase still bound, per cent of control [16] of the same compound?
A: 5.4%

Q: And the kinase still bound, per cent of control [17]?
A: 1.6%

Q: What about the kinase still bound, per cent of control [18] of the same compound?
A: 4.5%

Q: And the kinase still bound, per cent of control [19]?
A: 86%

Q: And the kinase still bound, per cent of control [20]?
A: 37%

Q: And the kinase still bound, per cent of control [21]?
A: 100%

Q: And the kinase still bound, per cent of control [22]?
A: 0%

Q: What about the kinase still bound, per cent of control [23] of the same compound?
A: 100%

Q: What about the kinase still bound, per cent of control [24] of the same compound?
A: 0.7%

Q: What about the kinase still bound, per cent of control [25] of the same compound?
A: 100%

Q: What about the kinase still bound, per cent of control [26] of the same compound?
A: 100%

Q: And the kinase still bound, per cent of control [27]?
A: 1%

Q: What about the kinase still bound, per cent of control [28] of the same compound?
A: 81%

Q: And the kinase still bound, per cent of control [29]?
A: 100%

Q: And the kinase still bound, per cent of control [30]?
A: 100%

Q: What about the kinase still bound, per cent of control [31] of the same compound?
A: 100%

Q: What about the kinase still bound, per cent of control [32] of the same compound?
A: 50%

Q: What about the kinase still bound, per cent of control [33] of the same compound?
A: 55%

Q: And the kinase still bound, per cent of control [34]?
A: 92%

Q: And the kinase still bound, per cent of control [35]?
A: 100%

Q: And the kinase still bound, per cent of control [36]?
A: 100%

Q: What about the kinase still bound, per cent of control [37] of the same compound?
A: 91%

Q: And the kinase still bound, per cent of control [38]?
A: 0.2%

Q: What about the kinase still bound, per cent of control [39] of the same compound?
A: 100%

Q: What about the kinase still bound, per cent of control [40] of the same compound?
A: 3.6%

Q: And the kinase still bound, per cent of control [41]?
A: 0%

Q: What about the kinase still bound, per cent of control [42] of the same compound?
A: 100%

Q: What about the kinase still bound, per cent of control [43] of the same compound?
A: 83%

Q: Which results are given for `COc1cc(N2CCC(N3CCN(C)CC3)CC2)ccc1Nc1ncc(Cl)c(Nc2ccccc2S(=O)(=O)C(C)C)n1`?
A: kinase still bound, per cent of control [1]: 4.2%; kinase still bound, per cent of control [2]: 1.7%; kinase still bound, per cent of control [3]: 40%; kinase still bound, per cent of control [4]: 0%; kinase still bound, per cent of control [6]: 0%; kinase still bound, per cent of control [7]: 3%; kinase still bound, per cent of control [8]: 1.2%; kinase still bound, per cent of control [9]: 0%; kinase still bound, per cent of control [10]: 40%; kinase still bound, per cent of control [11]: 40%; kinase still bound, per cent of control [12]: 40%; kinase still bound, per cent of control [13]: 40%; kinase still bound, per cent of control [14]: 0%; kinase still bound, per cent of control [15]: 9.6%; kinase still bound, per cent of control [16]: 27%; kinase still bound, per cent of control [17]: 0%; kinase still bound, per cent of control [18]: 2.8%; kinase still bound, per cent of control [19]: 0.1%; kinase still bound, per cent of control [20]: 2.2%; kinase still bound, per cent of control [21]: 40%; kinase still bound, per cent of control [23]: 40%; kinase still bound, per cent of control [24]: 12%; kinase still bound, per cent of control [25]: 0%; kinase still bound, per cent of control [26]: 2.5%; kinase still bound, per cent of control [27]: 40%; kinase still bound, per cent of control [28]: 0%; kinase still bound, per cent of control [29]: 9.6%; kinase still bound, per cent of control [30]: 2.7%; kinase still bound, per cent of control [31]: 0%; kinase still bound, per cent of control [32]: 40%; kinase still bound, per cent of control [33]: 40%; kinase still bound, per cent of control [34]: 0%; kinase still bound, per cent of control [35]: 40%; kinase still bound, per cent of control [36]: 1.3%; kinase still bound, per cent of control [37]: 0.15%; kinase still bound, per cent of control [39]: 0.25%; kinase still bound, per cent of control [41]: 0%; kinase still bound, per cent of control [42]: 11%; kinase still bound, per cent of control [43]: 0.1%

Q: What does the source list for `CCOc1cc(N2CCC(N3CCCCC3)CC2)ccc1Nc1nc(Nc2ccccc2S(=O)(=O)C(C)C)c2cn[nH]c2n1`?
A: kinase still bound, per cent of control [1]: 61%; kinase still bound, per cent of control [2]: 100%; kinase still bound, per cent of control [3]: 100%; kinase still bound, per cent of control [4]: 100%; kinase still bound, per cent of control [5]: 98%; kinase still bound, per cent of control [6]: 100%; kinase still bound, per cent of control [7]: 50%; kinase still bound, per cent of control [8]: 5.2%; kinase still bound, per cent of control [9]: 99%; kinase still bound, per cent of control [10]: 92%; kinase still bound, per cent of control [11]: 74%; kinase still bound, per cent of control [12]: 71%; kinase still bound, per cent of control [13]: 46%; kinase still bound, per cent of control [14]: 100%; kinase still bound, per cent of control [15]: 100%; kinase still bound, per cent of control [16]: 100%; kinase still bound, per cent of control [17]: 100%; kinase still bound, per cent of control [18]: 82%; kinase still bound, per cent of control [19]: 40%; kinase still bound, per cent of control [20]: 100%; kinase still bound, per cent of control [21]: 100%; kinase still bound, per cent of control [22]: 54%; kinase still bound, per cent of control [23]: 94%; kinase still bound, per cent of control [24]: 22%; kinase still bound, per cent of control [25]: 71%; kinase still bound, per cent of control [26]: 100%; kinase still bound, per cent of control [27]: 54%; kinase still bound, per cent of control [28]: 27%; kinase still bound, per cent of control [29]: 85%; kinase still bound, per cent of control [30]: 80%; kinase still bound, per cent of control [31]: 21%; kinase still bound, per cent of control [32]: 100%; kinase still bound, per cent of control [33]: 100%; kinase still bound, per cent of control [34]: 74%; kinase still bound, per cent of control [35]: 100%; kinase still bound, per cent of control [36]: 100%; kinase still bound, per cent of control [37]: 10%; kinase still bound, per cent of control [38]: 100%; kinase still bound, per cent of control [39]: 1.8%; kinase still bound, per cent of control [40]: 100%; kinase still bound, per cent of control [41]: 100%; kinase still bound, per cent of control [42]: 63%; kinase still bound, per cent of control [43]: 1.8%

Q: `CCN1CCN(Cc2ccc(NC(=O)c3ccc(C)c(Oc4ccnc5[nH]ccc45)c3)cc2C(F)(F)F)CC1` was tested. Which kinase still bound, per cent of control [1] did it give?
A: 1.1%

Q: What about the kinase still bound, per cent of control [5] of the same compound?
A: 11%

Q: What about the kinase still bound, per cent of control [9] of the same compound?
A: 0%

Q: What about the kinase still bound, per cent of control [15] of the same compound?
A: 14%

Q: And the kinase still bound, per cent of control [16]?
A: 3.1%

Q: And the kinase still bound, per cent of control [17]?
A: 1.7%

Q: What about the kinase still bound, per cent of control [18] of the same compound?
A: 1.2%

Q: What about the kinase still bound, per cent of control [20] of the same compound?
A: 1.5%

Q: And the kinase still bound, per cent of control [22]?
A: 1.6%

Q: And the kinase still bound, per cent of control [24]?
A: 0%

Q: What about the kinase still bound, per cent of control [27] of the same compound?
A: 3.8%

Q: What about the kinase still bound, per cent of control [37] of the same compound?
A: 28%

Q: And the kinase still bound, per cent of control [38]?
A: 0%

Q: And the kinase still bound, per cent of control [40]?
A: 5.3%

Q: And the kinase still bound, per cent of control [41]?
A: 0%

Q: And the kinase still bound, per cent of control [42]?
A: 0%
